Data taken from PubChem BioAssay (NCI).
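Tested at 5 concentrations; 48 h exposure; 96-well plates; endpoints linearly interpolated, else capped at highest concentration. TGI: concentration producing complete growth inhibition.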

Legend:
Assay in all cases: NCI tumour cell line growth inhibition, 48 h
M19-MEL melanoma = tested on: M19-MEL melanoma
XF 498 CNS = tested on: XF 498 CNS
DMS 273 small cell lung = tested on: DMS 273 small cell lung
LXFL 529 NSCLC = tested on: LXFL 529 NSCLC
RXF-631 renal = tested on: RXF-631 renal
DMS 114 small cell lung = tested on: DMS 114 small cell lung
SNB-78 CNS = tested on: SNB-78 CNS
HOP-18 NSCLC = tested on: HOP-18 NSCLC
DLD-1 colon = tested on: DLD-1 colon
P388 leukemia = tested on: P388 leukemia
SN12K1 renal = tested on: SN12K1 renal
P388/ADR leukemia = tested on: P388/ADR leukemia

Row | Compound | TGI (M19-MEL melanoma) | TGI (XF 498 CNS) | TGI (DMS 273 small cell lung) | TGI (LXFL 529 NSCLC) | TGI (RXF-631 renal) | TGI (DMS 114 small cell lung) | TGI (SNB-78 CNS) | TGI (HOP-18 NSCLC) | TGI (DLD-1 colon) | TGI (P388 leukemia) | TGI (SN12K1 renal) | TGI (P388/ADR leukemia)
1 | C=C1C(=O)C=C2C=C3C(=O)C(C)(C)C[C@]3(O)C12C (some centres not stated) | 11.3 µM | 3.56 µM | 14 µM | 2.64 µM | 30.9 µM | 3.61 µM | 21 µM | – | – | – | – | –
2 | Cc1ccc(S(=O)(=O)C2=c3ncccc3=C3C(=O)c4ccccc4C(=O)C32)cc1 (configuration not stated) | > 100 µM | – | > 100 µM | > 100 µM | – | > 100 µM | > 100 µM | > 100 µM | > 100 µM | – | – | –
3 | CCOc1ccc(N=Cc2cc(OC)c(OC)c(OC)c2)cc1 | > 100 µM | > 100 µM | > 100 µM | > 100 µM | – | > 100 µM | > 100 µM | > 100 µM | > 100 µM | – | – | –
4 | CCC(C)(C)NC1=C(NC(C)=O)C(=O)c2ccccc2C1=O | 23.7 µM | 40.2 µM | > 75 µM | > 75 µM | – | – | > 75 µM | – | > 75 µM | – | – | –
5 | c1ccc2cc3n[se]nc3cc2c1 | – | – | > 100 µM | > 100 µM | > 100 µM | > 100 µM | > 100 µM | – | > 100 µM | – | – | –
6 | CCC(=S)N(C)O | > 51.7 µM | 29.8 µM | – | > 100 µM | – | 5.82 µM | > 100 µM | – | > 100 µM | – | – | –
7 | CCC12C=CCN3CC[C@]4(C(=C(C(=O)OC)[C@@H]1Nc1ccn(C5OC(COC(C)=O)C(OC(C)=O)C5OC(C)=O)c(=O)n1)Nc1ccccc14)C32 (some centres not stated) | 7.45 µM | 9.63 µM | 8.54 µM | 8.94 µM | – | – | 13.8 µM | 14.1 µM | 9.14 µM | – | – | –
8 | CC1=NN(C(=O)c2ccc(Cl)cc2)C(=O)/C1=C/c1cccc(O)c1 | > 100 µM | – | – | > 100 µM | – | > 100 µM | > 100 µM | – | > 100 µM | – | – | –
9 | CC(C)(C)C1CCC2c3c([nH]c4ccccc34)C3C(=O)N(c4ccc(Br)cc4)C(=O)C3C2C1 (configuration not stated) | 33.2 µM | 76.2 µM | 31.9 µM | 48.1 µM | – | 41.6 µM | > 100 µM | > 100 µM | > 100 µM | – | – | –
10 | C[n+]1c2ccccc2c(NC(CCC(N)=O)C(=O)O)c2ccccc21 (configuration not stated) | > 100 µM | > 100 µM | > 100 µM | > 100 µM | > 100 µM | > 100 µM | > 100 µM | > 100 µM | > 100 µM | – | – | –
11 | CC1=CCC2(C#N)CCC1C2=O (configuration not stated) | > 100 µM | > 100 µM | – | > 100 µM | > 100 µM | > 100 µM | > 100 µM | – | > 100 µM | – | – | –
12 | Nc1nc(=O)n(C2OC(CO)C(O)C2O)cc1F (configuration not stated) | > 100 µM | > 100 µM | > 100 µM | – | – | 3.26 µM | > 100 µM | > 100 µM | > 100 µM | 0.0341 µM | > 100 µM | 0.182 µM
13 | Cc1ccc2c(c1)NC(=O)C(N=[N+]=[N-])(c1ccccc1)C2=O (configuration not stated) | 40 µM | 60.2 µM | 28.6 µM | 66.1 µM | – | 81.1 µM | 64.3 µM | 88.3 µM | > 100 µM | – | – | –
14 | CCN(CC)CC(C)(C)C(=O)/C=C/c1ccc(C)cc1 | 79.6 µM | 20.4 µM | – | 20.1 µM | 55.7 µM | – | 26.3 µM | 23.6 µM | 32.4 µM | – | – | –
15 | CCCCCCCCCCCCCCCCCC(=O)NCCCNCCCNC(=O)CCCCCCCCCCCCCCCCC | > 100 µM | – | > 100 µM | > 100 µM | > 100 µM | > 100 µM | – | > 100 µM | > 100 µM | – | – | –
16 | Cc1ccc(N2C(=O)/C(=c3\s/c(=C(/N)O)c(=N)n3-c3ccccc3)SC2=S)cc1 | > 100 µM | – | – | > 100 µM | – | – | – | > 100 µM | > 100 µM | – | – | –
